Reference: patent US20260206755A1, “COMPOUNDS AND COMPOSITIONS HAVING KNOCK-DOWN OR BLOOD FEED INHIBITION ACTIVITY AGAINST INSECT PESTS” (priority 2017, published 2026)
Like-named read-outs stand apart in the source and are kept apart here.

System: Anopheles stephensi
Assay: Anopheles stephensi treated well plate contact test: knockdown and mortality
Type: in vivo
Conditions: for mortality at 0.2 ppm / pest or weed control at 0.2 ppm / mortality at 2 ppm / pest or weed control at 2 ppm / mortality at 20 ppm / pest or weed control at 20 ppm / mortality at 200 ppm / pest or weed control at 200 ppm / mortality at 0.02 ppm / pest or weed control at 0.02 ppm: Anopheles stephensi; for pest or weed control at 0.2 ppm / pest or weed control at 2 ppm / pest or weed control at 20 ppm / pest or weed control at 200 ppm / Knock Down, with TFNA-AM / pest or weed control at 0.02 ppm / Knock Down, without TFNA-AM: knockdown after 1 hour; for pest or weed control at 0.2 ppm / pest or weed control at 2 ppm / pest or weed control at 20 ppm / pest or weed control at 200 ppm / pest or weed control at 0.02 ppm: read-out: Knock Down, without TFNA-AM; for pest or weed control at 0.02 ppm: test compound 0.02 ppm
Procedure, shortened: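 Well surfaces coated with ethanol solution of compound at a defined concentration, alone or with 2 ppm TFNA-AM, then dried. Five non-blood-fed 2–5-day-old adult females per well, fed 10% sucrose; knockdown scored at 1 hour, mortality at 24 and 48 hours, replicate means reported.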

[1] = test compound 0.2 ppm, without TFNA-AM, after 24 hours, read-out: mortality % 24, without TFNA-AM
[2] = test compound 0.2 ppm, without TFNA-AM, after 48 hours, read-out: mortality % 48, without TFNA-AM
[3] = test compound 0.2 ppm, without TFNA-AM
[4] = test compound 2 ppm, without TFNA-AM, after 24 hours, read-out: mortality % 24, without TFNA-AM
[5] = test compound 2 ppm, without TFNA-AM, after 48 hours, read-out: mortality % 48, without TFNA-AM
[6] = test compound 2 ppm, without TFNA-AM
[7] = test compound 20 ppm, without TFNA-AM, after 24 hours, read-out: mortality % 24, without TFNA-AM
[8] = test compound 20 ppm, without TFNA-AM, after 48 hours, read-out: mortality % 48, without TFNA-AM
[9] = test compound 20 ppm, without TFNA-AM
[10] = test compound 200 ppm, without TFNA-AM, after 24 hours, read-out: mortality % 24, without TFNA-AM
[11] = test compound 200 ppm, without TFNA-AM, after 48 hours, read-out: mortality % 48, without TFNA-AM
[12] = test compound 200 ppm, without TFNA-AM, adult females
[13] = test compound 0.2 ppm plus 2 ppm TFNA-AM, after 24 hours
[14] = test compound 0.2 ppm plus 2 ppm TFNA-AM, after 48 hours
[15] = test compound 0.2 ppm plus 2 ppm TFNA-AM
[16] = test compound 2 ppm plus 2 ppm TFNA-AM, after 24 hours
[17] = test compound 2 ppm plus 2 ppm TFNA-AM, after 48 hours
[18] = test compound 2 ppm plus 2 ppm TFNA-AM
[19] = test compound 20 ppm plus 2 ppm TFNA-AM, after 24 hours
[20] = test compound 20 ppm plus 2 ppm TFNA-AM, after 48 hours
[21] = test compound 20 ppm plus 2 ppm TFNA-AM
[22] = test compound 200 ppm plus 2 ppm TFNA-AM, after 24 hours
[23] = test compound 200 ppm plus 2 ppm TFNA-AM, after 48 hours
[24] = test compound 200 ppm plus 2 ppm TFNA-AM
[25] = 24 h, read-out: mortality % 24, without TFNA-AM
[26] = 48 h, read-out: mortality % 48, without TFNA-AM
[27] = test compound 0.02 ppm plus 2 ppm TFNA-AM, after 24 hours
[28] = test compound 0.02 ppm plus 2 ppm TFNA-AM, after 48 hours
[29] = test compound 0.02 ppm plus 2 ppm TFNA-AM
[30] = test compound 0.2 ppm, without TFNA-AM, after 24 hours
[31] = test compound 0.2 ppm, without TFNA-AM, after 48 hours
[32] = test compound 2 ppm, without TFNA-AM, after 24 hours
[33] = test compound 2 ppm, without TFNA-AM, after 48 hours
[34] = test compound 20 ppm, without TFNA-AM, after 24 hours
[35] = test compound 20 ppm, without TFNA-AM, after 48 hours
[36] = test compound 200 ppm, without TFNA-AM, after 24 hours
[37] = test compound 200 ppm, without TFNA-AM, after 48 hours

Compound | mortality at 0.2 ppm [1] [%] | mortality at 0.2 ppm [2] [%] | pest or weed control at 0.2 ppm [3] [%] | mortality at 2 ppm [4] [%] | mortality at 2 ppm [5] [%] | pest or weed control at 2 ppm [6] [%] | mortality at 20 ppm [7] [%] | pest or weed control at 20 ppm [9] [%] | mortality % 24, with TFNA-AM [13] [%] | mortality % 48, with TFNA-AM [14] [%] | Knock Down, with TFNA-AM [15] [%] | mortality % 24, with TFNA-AM [16] [%] | mortality % 48, with TFNA-AM [17] [%] | Knock Down, with TFNA-AM [18] [%] | mortality % 24, with TFNA-AM [19] [%] | mortality % 48, with TFNA-AM [20] [%] | Knock Down, with TFNA-AM [21] [%] | mortality % 24, with TFNA-AM [22] [%] | mortality % 48, with TFNA-AM [23] [%] | Knock Down, with TFNA-AM [24] [%] | other results
CO/C=C(/C(=O)OC)c1ccccc1Oc1cc(C(F)(F)F)ccn1 [Compound 49] | 0 | 0 | 0 | 60 | 60 | 0 | 100 | 50 | 50 | 10 | 90 | 90 | 90 | 100 | 100 | 90 | 100 | 100 | 90 | 100 | mortality at 20 ppm [8]: 100%; mortality at 200 ppm [10]: 100%; mortality at 200 ppm [11]: 100%; pest or weed control at 200 ppm [12]: 50%
CNC(=O)Oc1ccccc1OC(C)C [Propoxur] | – | – | 0 | – | – | 100 | – | 100 | 100 | 100 | 100 | 100 | 100 | 100 | 100 | 100 | 100 | – | – | – | mortality at 0.02 ppm [25]: 0%; mortality at 0.2 ppm [25]: 100%; mortality at 2 ppm [25]: 100%; mortality at 20 ppm [25]: 100%; mortality at 0.02 ppm [26]: 0%; mortality at 0.2 ppm [26]: 100%; mortality at 2 ppm [26]: 100%; mortality at 20 ppm [26]: 100%; pest or weed control at 0.02 ppm (without TFNA-AM): 0%; mortality % 24, with TFNA-AM [27]: 40%; mortality % 48, with TFNA-AM [28]: 40%; Knock Down, with TFNA-AM [29]: 100%
CO/C=C(/C(=O)OC)c1ccccc1COc1cc(C(F)(F)F)nc(OC(C)C)n1 [Fluacrypyrim] | 0 | 0 | 0 | 0 | 0 | 0 | 0 | 0 | 60 | 40 | 100 | – | 100 | 100 | 100 | 100 | 100 | 100 | 100 | 100 | mortality at 20 ppm [8]: 0%; mortality at 200 ppm [10]: 20%; mortality at 200 ppm [11]: 80%; pest or weed control at 200 ppm [12]: 0%
O=C1C=C(N(Cc2ccc(Cl)nc2)CC(F)F)CO1 [Flupyradifurone] | – | – | – | – | – | – | – | – | 10 | 0 | 100 | 20 | 20 | 100 | 50 | 60 | 100 | 70 | 90 | 100 | mortality % 24, without TFNA-AM [30]: 0%; mortality % 48, without TFNA-AM [31]: 0%; Knock Down, without TFNA-AM [3]: 0%; mortality % 24, without TFNA-AM [32]: 0%; mortality % 48, without TFNA-AM [33]: 0%; Knock Down, without TFNA-AM [6]: 0%; mortality % 24, without TFNA-AM [34]: 0%; mortality % 48, without TFNA-AM [35]: 10%; Knock Down, without TFNA-AM [9]: 0%; mortality % 24, without TFNA-AM [36]: 20%; mortality % 48, without TFNA-AM [37]: 30%; Knock Down, without TFNA-AM [12]: 0%
CCOC(=O)CC(SP(=S)(OC)OC)C(=O)OCC (stereo not drawn) [Malathion] | – | – | 20 | – | – | 40 | – | 40 | 0 | 0 | 100 | 100 | 100 | 100 | 100 | 100 | 100 | – | – | – | mortality at 0.02 ppm [25]: 0%; mortality at 0.2 ppm [25]: 0%; mortality at 2 ppm [25]: 100%; mortality at 20 ppm [25]: 100%; mortality at 0.02 ppm [26]: 0%; mortality at 0.2 ppm [26]: 0%; mortality at 2 ppm [26]: 100%; mortality at 20 ppm [26]: 100%; pest or weed control at 0.02 ppm (without TFNA-AM): 20%; mortality % 24, with TFNA-AM [27]: 0%; mortality % 48, with TFNA-AM [28]: 0%; Knock Down, with TFNA-AM [29]: 100%
CCC(Nc1ncnc(C)c1Cl)c1ccc(OC(F)F)cc1 (stereo not drawn) [Diflumetorim] | 0 | 0 | 0 | 60 | 60 | 30 | 100 | 100 | 20 | 10 | 100 | 90 | 90 | 100 | 100 | 100 | 100 | 100 | 100 | 100 | mortality at 20 ppm [8]: 100%; mortality at 200 ppm [10]: 100%; mortality at 200 ppm [11]: 100%; pest or weed control at 200 ppm [12]: 100%
O=c1c(-c2cccc(C(F)(F)F)c2)c([O-])[n+](Cc2cncnc2)c2ccccn12 [Triflumizopyrim] | – | – | – | – | – | – | – | – | 0 | 0 | 100 | 50 | 50 | 100 | 90 | 100 | 100 | 100 | 100 | 100 | mortality % 24, without TFNA-AM [30]: 0%; mortality % 48, without TFNA-AM [31]: 0%; Knock Down, without TFNA-AM [3]: 0%; mortality % 24, without TFNA-AM [32]: 0%; mortality % 48, without TFNA-AM [33]: 0%; Knock Down, without TFNA-AM [6]: 0%; mortality % 24, without TFNA-AM [34]: 0%; mortality % 48, without TFNA-AM [35]: 10%; Knock Down, without TFNA-AM [9]: 0%; mortality % 24, without TFNA-AM [36]: 40%; mortality % 48, without TFNA-AM [37]: 40%; Knock Down, without TFNA-AM [12]: 0%
CCc1nn(C)c(C(=O)NCc2ccc(C(C)(C)C)cc2)c1Cl [Tebufenpyrad] | 0 | 0 | 0 | 0 | 0 | 0 | 13 | 0 | 0 | 0 | 93 | 27 | – | 93 | 80 | – | 93 | 100 | 100 | 93 | mortality at 20 ppm [8]: 20%; mortality at 200 ppm [10]: 73%; mortality at 200 ppm [11]: 67%; pest or weed control at 200 ppm [12]: 0%
